Columns and labels:
[1] = tested on: tumors from the tumor cell lines of Table 9; assay: Mean tumor volume in nude mice injected subcutaneously with human tumor cells; conditions: 30 mg/kg/day oral, 7 days
[2] = tested on: fibroblasts (PHF) co-cultured with tumor cells of human pancreatic adenocarcinoma (CAPAN-1); assay: Marker expression (IHC) in PHF co-cultured with CAPAN-1 tumor cells; assay type: cell-based; conditions: co-culture with CAPAN-1; SP 1 μM + antagonist 1 μM; 48 h;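 further: cultures grown in fresh plasma from a healthy human donor, run in six replicates, value is percent of fibroblasts positive for each marker, compared with fibroblasts cultured alone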
[3] = tested on: fibroblasts of tumors produced by tumor cell line of human melanoma (MEL HO); assay: Marker expression (IHC) in fibroblasts of tumor or peritumoral area, mouse model, MEL HO; assay type: in vivo; conditions: MEL HO tumors in mice, 30 mg/kg/day oral, 7 days
Protocol: In vitro tests conducted in Example 5 are now carried out in an experimental model in mice in vivo. […] Subsequently, the expression in fibroblasts tumoral and peritumoral area of molecular markers associated with progression and maintenance of tumors: TGF-α, TGF-β1, TGF-β2, TGF-β3, MMP-7, MMP-11, MMP-14 were analyzed by immunohistochemistry.
Were injected with 2×10^7 cells tumors (corresponding, in each case to each of the tumor types as specified in Table 9) in 200 of PBS subcutaneously μl. […] Mice were randomized into two groups when the tumors reached a volume of 75 mm^3 One group was treated with non-peptide receptor antagonists NK1 and the other with placebo 200μ1. […] Tumors and samples of non-neoplastic stromal areas remote from the tumor were halved, formalin fixed (4%) and then were included in paraffin blocks for analysis by immunohistochemistry.
The expression on fibroblast cells obtained in the animal model was analyzed by immunohistochemistry, of the above markers: TGF-α, TGF-β1, TGF-β2, TGF-β3, MMP-7, MMP-1 1, MMP-14MP-14. Tables 32 to 35 depict the type of label used and the average percentage of fibroblasts present in non-tumor areas, tumor and peritumoral (±SD) which were expressing the marker shown in each of the tumor types developed from of the different cell lines used. This process was realized in mice treated with non-peptide antagonists of NK1 receptor and in untreated animals (control).

[4] = tested on: fibroblasts (PHF) cells co-cultured with human T lymphoma tumor (DERL-7); assay: Marker expression (IHC) in PHF co-cultured with DERL-7 tumor cells; assay type: cell-based; conditions: PHF co-cultured with DERL-7 + SP + NK1 antagonist
Protocol: All cultures were maintained 48 hours, following which the same cells were included in paraffin blocks for subsequent analysis of the expression of different markers by immunohistochemistry (see Example 1). The primary antibodies used to perform immunohistochemical assays and their concentration are detailed in Example 2. All experiments were carried out sixfold. Analyzed markers in fibroblast cells (stromal cells) were: TGF-α, TGF-β1, TGF-β2, TGF-β3, SPARC, MMP-3, MMP-7, MMP-9, MMP-11, MMP-13 and MMP-14.

[5] = tested on: fibroblasts (PHF) co-cultured with tumor cells of human Edwing sarcoma (MHH-ES-1); assay: Marker expression (IHC) in PHF co-cultured with MHH-ES-1 tumor cells; assay type: cell-based; conditions: PHF co-cultured with MHH-ES-1 + SP + NK1 antagonist
Protocol: All cultures were maintained 48 hours, following which the same cells were included in paraffin blocks for subsequent analysis of the expression of different markers by immunohistochemistry (see Example 1). […] All experiments were carried out sixfold. Analyzed markers in fibroblast cells (stromal cells) were: TGF-α, TGF-β1, TGF-β2, TGF-β3, SPARC, MMP-3, MMP-7, MMP-9, MMP-11, MMP-13 and MMP-14.

C[C@@H](O[C@H]1OCCN(Cc2n[nH]c(=O)[nH]2)[C@H]1c1ccc(F)cc1)c1cc(C(F)(F)F)cc(C(F)(F)F)c1 [Aprepitant]
Mean tumor volume ([1]; B lymphoblastic leukemia (peripheral human B lymphoblastoid cells) SD1): 103 ± 8
Mean tumor volume ([1]; Carcinoma of human non-small cell lung COR-L23): 102 ± 5
Mean tumor volume ([1]; Carcinoma of human non-small cell lung H-1963): 98 ± 5
Mean tumor volume ([1]; Carcinoma of human non-small cell lung HCC-44): 105 ± 7
Mean tumor volume ([1]; Carcinoma of human small cell lung H-209): 104 ± 6
Mean tumor volume ([1]; Carcinoma of human urinary bladder 5637): 102 ± 4
Mean tumor volume ([1]; Human B lymphoma BC-1): 108 ± 5
Mean tumor volume ([1]; Human Burkitt lymphoma CA-46): 109 ± 7
Mean tumor volume ([1]; Human Fibrosarcoma HT-1080): 100 ± 4
Mean tumor volume ([1]; Human Hodgkin lymphoma KM-H2): 101 ± 5
Mean tumor volume ([1]; Human Rhabdomyosarcoma A-204): 102 ± 8
Mean tumor volume ([1]; Human T-cell leukemia/NK YT): 106 ± 6
Mean tumor volume ([1]; Human T-lymphoma DERL human Hodgkin 7Linfoma KM-H2): 105 ± 6
Mean tumor volume ([1]; Human breast adenocarcinoma humano MCF-7): 95 ± 6
Mean tumor volume ([1]; Human breast carcinoma MDA-MB-468): 99 ± 7
Mean tumor volume ([1]; Human breast carcinoma MT-3): 109 ± 2
Mean tumor volume ([1]; Human choriocarcinoma AC-1M32): 112 ± 4
Mean tumor volume ([1]; Human colon carcinoma SW-403): 79 ± 4
Mean tumor volume ([1]; Human endometrial carcinoma AN3-CA): 90 ± 4
Mean tumor volume ([1]; Human endometrial stromal sarcoma ESS-1): 107 ± 4
Mean tumor volume ([1]; Human folicular thyroid carcinoma TT2609-C02): 105 ± 7
Mean tumor volume ([1]; Human gastric adenocarcinoma 23132/87): 77 ± 6
Mean tumor volume ([1]; Human glioma GAMG): 108 ± 8
Mean tumor volume ([1]; Human lung carcinoma A-427): 104 ± 4
Mean tumor volume ([1]; Human lung carcinoma DV-90): 97 ± 3
Mean tumor volume ([1]; Human lymphoblastic leukemia T BE-13): 102 ± 6
Mean tumor volume ([1]; Human malignant fibrous histiocytoma U-2197): 102 ± 6
Mean tumor volume ([1]; Human melanoma MEL HO): 104 ± 5
Mean tumor volume ([1]; Human multiple myeloma COLO-677): 102 ± 6
Mean tumor volume ([1]; Human neuroblastoma KELLY): 105 ± 6
Mean tumor volume ([1]; Human neuroblastoma bone marrow SKN-BE 2): 97 ± 9
Mean tumor volume ([1]; Human osteosarcoma CAL-72): 112 ± 4
Mean tumor volume ([1]; Human ovarian adenocarcinoma EFO-27): 98 ± 7
Mean tumor volume ([1]; Human ovarian carcinoma COLO-704): 101 ± 7
Mean tumor volume ([1]; Human pancretic adenocarcinoma CAPAN-1): 86 ± 8
Mean tumor volume ([1]; Human pancretic adenocarcinoma PA-TU 8902): 102 ± 7
Mean tumor volume ([1]; Human papillary thyroid carcinoma metastasizing B-CPAP): 102 ± 4
Mean tumor volume ([1]; Human prostate carcinoma 22RV1): 103 ± 5
Mean tumor volume ([1]; Human retinoblastoma WERI-Rb-1): 99 ± 4
Mean tumor volume ([1]; Human thyroid carcinoma 8505C): 105 ± 3
Mean tumor volume ([1]; Human uterine cervix carcinoma KB): 103 ± 9
Mean tumor volume ([1]; Melanoma humano, metástasis en ganglio linfático COLO 858): 109 ± 4
Mean tumor volume ([1]; Sarcoma human Edwing MHH-ES-1): 103 ± 5
Mean tumor volume ([1]; Transitional Carcinoma of human urinary bladder RT-4): 102 ± 6
PHF cells expressing MMP-3 [2]: 0%
PHF cells expressing MMP-7 [2]: 0%
PHF cells expressing MMP-9 [2]: 0%
PHF cells expressing MMP-11 [2]: 0%
PHF cells expressing MMP-13 [2]: 0%
PHF cells expressing MMP-14 [2]: 0%
PHF cells expressing SPARC [2]: 0%
PHF cells expressing TGF-α [2]: 0%
PHF cells expressing TGF-β1 [2]: 0%
PHF cells expressing TGF-β2 [2]: 0%
PHF cells expressing TGF-β3 [2]: 0%
fibroblasts expressing MMP-7 [3]: 0%
fibroblasts expressing MMP-11 [3]: 0%
fibroblasts expressing MMP-14 [3]: 0%
fibroblasts expressing TGF-α [3]: 0%
fibroblasts expressing TGF-β 1 [3]: 0%
fibroblasts expressing TGF-β 2 [3]: 0%
fibroblasts expressing TGF-β 3 [3]: 0%
cells expressing MMP-3 [4]: 0%
cells expressing MMP-7 [4]: 0%
cells expressing MMP-9 [4]: 0%
cells expressing MMP-11 [4]: 0%
cells expressing MMP-13 [4]: 0%
cells expressing MMP-14 [4]: 0%
cells expressing SPARC [4]: 0%
cells expressing TGF-α [4]: 0%
cells expressing TGF-β1 [4]: 0%
cells expressing TGF-β2 [4]: 0%
cells expressing TGF-β3 [4]: 0%
cells expressing MMP-3 [5]: 0%
cells expressing MMP-7 [5]: 0%
cells expressing MMP-9 [5]: 0%
cells expressing MMP-11 [5]: 0%
cells expressing MMP-13 [5]: 0%
cells expressing MMP-14 [5]: 0%
cells expressing SPARC [5]: 0%
cells expressing TGF-α [5]: 0%
cells expressing TGF-β1 [5]: 0%
cells expressing TGF-β2 [5]: 0%
cells expressing TGF-β3 [5]: 0%

From US20180071317A1, “USE OF AGENTS THAT ALTER THE PERITUMORAL ENVIRONMENT FOR THE TREATMENT OF CANCER” (SERVICIO ANDALUZ DE SALUD, priority 2011, published 2018)
